According to ChEMBL document CHEMBL4145658, “Modulators of the Cystic Fibrosis Transmembrane Conductance Regulator Protein” (ACS Med Chem Lett, 2018):

Columns and labels:
Format in all cases: cell-based
[1] = test system: Cystic fibrosis transmembrane conductance regulator (Homo sapiens), P13569 [F508del]; test: Corrector activity at HRP-fused CFTR F508del mutant (unknown origin) expressed in human CFBE41o cells assessed as increase in matured protein levels at cell surface at 20 uM after 18 to 24 hrs by luminescence assay relative to 3-[(2R,4R)-4-({[l-(2,2-difluoro-l,3-benzodioxol-5-yl)cyclopropyl]carbonyl}amino)-7-methoxy-3,4-dihydro-2H-chromen-2-yl]benzoic acid
[2] = test system: Cystic fibrosis transmembrane conductance regulator (Homo sapiens), P13569 [F508del]; test: (§1) Corrector activity at HRP-fused CFTR F508del mutant (unknown origin) expressed in human CFBE41o cells assessed as increase in matured protein levels at cell surface at 20 uM after 18 to 24 hrs in presence of co-corrector 3-[(2R,4R)-4-({[l-(2,2-difluoro-l,3-benzodioxol-5-yl)cyclopropyl]carbonyl}amino)-7-methoxy-3,4-dihydro-2H-chromen-2-yl]benzoic acid by luminescence assay relative to co-corrector
[3] = molecular target: T1, Cystic fibrosis transmembrane conductance regulator (Homo sapiens, UniProt P13569, F508DEL); test: as §1, with “surface” for “surface at 20 uM”, “assay” for “assay relative to co-corrector”
[4] = molecular target: T1, Cystic fibrosis transmembrane conductance regulator; test: Corrector activity at HRP-fused CFTR F508del mutant (unknown origin) expressed in human CFBE41o cells assessed as increase in matured protein levels at cell surface after 18 to 24 hrs by luminescence assay

Chain of Cystic fibrosis transmembrane conductance regulator (Homo sapiens), P13569 [F508del] (P13569 as listed by the source): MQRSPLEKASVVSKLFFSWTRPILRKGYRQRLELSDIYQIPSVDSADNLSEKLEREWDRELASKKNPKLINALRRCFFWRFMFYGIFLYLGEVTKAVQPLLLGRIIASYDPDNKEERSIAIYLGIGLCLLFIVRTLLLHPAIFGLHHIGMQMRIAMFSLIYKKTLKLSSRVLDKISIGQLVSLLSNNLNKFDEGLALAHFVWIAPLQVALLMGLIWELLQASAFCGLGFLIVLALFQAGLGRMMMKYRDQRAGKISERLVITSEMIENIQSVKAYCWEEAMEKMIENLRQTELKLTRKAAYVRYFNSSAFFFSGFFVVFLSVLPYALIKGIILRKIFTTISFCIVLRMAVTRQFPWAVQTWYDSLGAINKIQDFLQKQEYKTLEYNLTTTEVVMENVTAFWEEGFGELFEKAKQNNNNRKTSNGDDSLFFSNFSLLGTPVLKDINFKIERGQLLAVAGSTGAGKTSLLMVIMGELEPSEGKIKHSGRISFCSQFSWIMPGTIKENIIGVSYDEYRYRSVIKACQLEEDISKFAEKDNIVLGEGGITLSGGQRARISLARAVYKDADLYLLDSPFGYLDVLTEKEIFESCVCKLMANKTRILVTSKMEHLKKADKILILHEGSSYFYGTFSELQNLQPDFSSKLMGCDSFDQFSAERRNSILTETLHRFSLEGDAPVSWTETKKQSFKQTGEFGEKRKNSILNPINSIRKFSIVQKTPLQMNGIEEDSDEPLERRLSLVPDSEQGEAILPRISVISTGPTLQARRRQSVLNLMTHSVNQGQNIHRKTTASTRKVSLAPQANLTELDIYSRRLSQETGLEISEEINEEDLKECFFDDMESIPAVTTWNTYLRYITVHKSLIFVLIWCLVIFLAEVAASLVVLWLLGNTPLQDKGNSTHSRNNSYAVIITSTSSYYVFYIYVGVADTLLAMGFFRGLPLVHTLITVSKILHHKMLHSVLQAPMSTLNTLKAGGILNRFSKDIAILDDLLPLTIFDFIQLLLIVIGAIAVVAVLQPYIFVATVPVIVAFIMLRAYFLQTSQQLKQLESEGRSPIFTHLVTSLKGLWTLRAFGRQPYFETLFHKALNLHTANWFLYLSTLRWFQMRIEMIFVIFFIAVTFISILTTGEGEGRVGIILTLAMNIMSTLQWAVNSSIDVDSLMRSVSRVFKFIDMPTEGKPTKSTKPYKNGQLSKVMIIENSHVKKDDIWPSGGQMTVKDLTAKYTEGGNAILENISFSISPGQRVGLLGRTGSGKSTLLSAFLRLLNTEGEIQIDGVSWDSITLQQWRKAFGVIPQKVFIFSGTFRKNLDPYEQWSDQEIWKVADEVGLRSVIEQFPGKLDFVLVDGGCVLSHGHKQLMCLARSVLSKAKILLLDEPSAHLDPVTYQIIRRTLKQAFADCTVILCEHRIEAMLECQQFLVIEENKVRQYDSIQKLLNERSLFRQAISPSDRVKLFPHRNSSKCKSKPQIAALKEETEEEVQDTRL
T1 sequence (P13569 as listed by the source): as above

| %max [1] [%] | %max [2] [%] | EC50 [3] [nM] | EC50 [4] [nM] | SMILES |
| --- | --- | --- | --- | --- |
| > 200 | > 350 | 1000 to 10000 | 1000 to 10000 | COc1ncc(C(C)C)cc1CN[C@H]1[C@H](C(C)(C)OC)[C@@H](C(=O)O)N(C(=O)C2CCCCC2)[C@H]1c1ccccc1 |
| > 200 | > 350 | < 1000 | < 1000 | COc1ccc(C2(C)CCC2)cc1CN[C@H]1[C@H](C(C)(C)C)[C@@H](C(=O)O)N(C(=O)[C@@H]2CCCCO2)[C@H]1c1ccccc1C |
| > 200 | > 350 | < 1000 | < 1000 | CC(C)c1ccccc1[C@H]1[C@@H](NCc2cccc3c2OC(C)(C)C3)[C@H](C(C)(C)C)[C@@H](C(=O)O)N1C(=O)[C@@H]1CCCCO1 |
| > 200 | > 350 | < 1000 | < 1000 | COc1ccc(C(C)(C)C)cc1CN[C@H]1[C@H](C(C)(C)C)[C@@H](C(=O)O)N(C(=O)[C@@H]2Cc3ccccc3O2)[C@H]1c1ccccc1 |
| > 200 | > 350 | < 1000 | < 1000 | COc1ccc(C(C)(C)C)cc1CN[C@H]1[C@H](C(C)(C)C)[C@@H](C(=O)O)N(C(=O)C2CCCCC2)[C@H]1c1cccnc1N(C)C |
| 100 to 200 | > 350 | < 1000 | < 1000 | COc1cc2c(cc1CN[C@H]1[C@H](C(C)(C)C)[C@@H](C(=O)O)N(C(=O)C3CCCCC3)[C@H]1c1ccccc1)C(C)(C)CCC2(C)C |
| > 200 | > 350 | < 1000 | < 1000 | COc1ccc(-c2cccc(F)c2F)cc1CN[C@H]1[C@H](C(C)(C)C)[C@@H](C(=O)O)N(C(=O)C2CCCCC2)[C@H]1c1ccccc1 |
| > 200 | > 350 | < 1000 | < 1000 | COc1ncc(C2CCC2)cc1CN[C@H]1[C@H](C(C)(C)C)[C@@H](C(=O)O)N(C(=O)C2CCCCC2)[C@H]1c1ccccc1C |

| SMILES | %max [1] [%] | %max [2] [%] | EC50 [3] [nM] | EC50 [4] [nM] |
| --- | --- | --- | --- | --- |
| COc1ccc([Si](C)(C)C)cc1CN[C@H]1[C@H](C(C)(C)C)[C@@H](C(=O)O)N(C(=O)C2CCCCC2)[C@H]1c1ccccc1 | > 200 | > 350 | < 1000 | < 1000 |
